# Publication PMC12764776, “Structural basis of specific lysine transport by Pseudomonas aeruginosa permease LysP” (Nature Communications, 2025)
# How the values were obtained:
# [1] = biological target: T1, lysine-specific permease (LysP) (Pseudomonas aeruginosa, UniProt Q9HVG3); experiment: microscale thermophoresis; assay type: binding; set-up: purified GFP-free LysP in LMNG
# [2] = biological target: T1, lysine-specific permease (LysP); experiment: microscale thermophoresis; inhibition of [3H]L-lysine transport in LysP proteoliposomes; assay type: binding; set-up: purified GFP-free LysP in LMNG
# [3] = biological target: T1, lysine-specific permease (LysP); experiment: cryo-EM structure ([…] Å) and microscale thermophoresis; [3H]L-lysine transport in proteoliposomes (cold L-lysine IC50 […]); assay type: binding; set-up: purified GFP-free LysP in LMNG (MST); LysP-Nb5755 complex (cryo-EM); with nanobody Nb5755 (cryo-EM structure only)
# [4] = biological target: T2, LysP-GFP fusion (P. aeruginosa LysP with GFP-His8) (P. aeruginosa strain PAO1, UniProt Q9HVG3); experiment: GFP thermal shift (GFP-TS) assay; membranes with LysP-GFP solubilised in 150 mM NaCl, 20 mM Tris-HCl pH 7.5, 1% DDM with or without 1 uM Nb5755, 1 h at 4 °C; 1% beta-OG added; heated 10 min at 4-100 °C; GFP fluorescence of the supernatant; conditions: one partner purified
# T2 construct: lysine-specific permease LysP, P. aeruginosa strain PAO1, UniProt Q9HVG3; the same construct as m1 in pWaldo-GFPd, with the GFP-His8 fusion not cut off; The GFP fluorescence is the read-out of the GFP-TS assay; source: E. coli (DE3) C43, in membranes solubilised with 1% DDM, not purified
molecule,measurement,setting,value
NCCCC[C@@H](N)C(=O)O [D-lysine],Kd,[1],151 µM
"NCCSC[C@H](N)C(=O)O [L-4-thialysine, S-(2-aminoethyl)-L-cysteine]",Kd,[2],31 µM
NCCCC[C@H](N)C(=O)O [L-lysine],Kd,[3],14 µM
"nanobody Nb5755 (VHH, raised in a llama immunised with LysP and selected by phage display; Library cloned into the phage display vector pMESy4, which bears the C-terminal His6 and EPEA tags; also called Nanobody 5755; CA5755; source: E. coli BL21 (DE3), periplasm, purified (Ni-NTA, SEC)) VHH: QVQLQESGGGLVQGGSLRLSCAASGRTFSIYGMAWVRQASGKEREFVAAMPRGGGTTNYADSVKGRFSISRDNAKNTVDLQMNSLKPEDTAVYYCVADRGFTLRLGIQHDYWGQGTQVTVSS",increase in melting temperature,[4],20 °C
